In experiment [1] the test system is OMP-PN11 pancreatic tumor. As to the kind of experiment: Pancreatic tumor xenograft growth in vivo, OMP-PN11. On the set-up: species or system human. The note with it: OMP-PN11 tumors in NOD/SCID mice; antibody 40 mg/kg every other week, gemcitabine 20 mg/kg weekly. The protocol:
(§1) Ten primary patient-derived pancreatic tumor xenografts were tested for efficacy in response to anti-Notch2/3 antibody OMP-59R5 in combination with gemcitabine. These tumors were OMP-PN04, OMP-PN07, OMP-PN08, OMP-PN11, OMP-PN13, OMP-PN16, OMP-PN17, OMP-PN21, OMP-PN23, and OMP-PN25.
In a second representative example, OMP-PN11 pancreatic tumor cells (5×10^4) were injected into NOD/SCID mice. Tumors were allowed to grow for 21 days until they reached an average volume of 120 mm^3. Tumor-bearing mice were randomized into 4 groups and treated with control antibody, OMP-59R5, gemcitabine, or a combination of OMP-59R5 and gemcitabine. Antibodies were dosed every other week at 40 mg/kg. Gemcitabine was dosed weekly at 20 mg/kg. […] Tumor growth was monitored and tumor volumes were measured with electronic calipers on the indicated days post-treatment.

In experiment [2] the test system is OMP-PN08 pancreatic tumor. As to the kind of experiment: Pancreatic tumor xenograft growth in vivo, OMP-PN08. Also noted: species or system human. The note with it: OMP-PN8 tumors in NOD/SCID mice; antibody 40 mg/kg every other week, gemcitabine 20 mg/kg weekly. The protocol: as §1
In one representative example, OMP-PN8 pancreatic tumor cells (2×10^4) were injected into NOD/SCID mice. Tumors were allowed to grow for 22 days until they reached an average volume of 125 mm^3. Tumor-bearing mice were randomized into 4 groups and treated with control antibody, anti-NOTCH2/3 antibody OMP-59R5, gemcitabine, or a combination of OMP-59R5 and gemcitabine. Antibodies were dosed every other week at 40 mg/kg. Gemcitabine was dosed weekly at 20 mg/kg. Tumor growth was monitored and tumor volumes were measured with electronic calipers on the indicated days post-treatment.

The results in this text go back to US20170023576A1, “NOTCH3 ANTIBODIES AND USES THEREOF” (ONCOMED PHARMACEUTICALS, INC., priority 2014, published 2017).

In the case of “OMP-59R5: anti-NOTCH2/3 therapeutic antibody; heavy chain variable region SEQ ID NO:18, light chain variable region SEQ ID NO:26”, the “tumor growth (FIG. 1B)” value in experiment [1] is “no effect”. The “tumor growth (FIG. 1A)” value in experiment [2] was “significantly inhibited tumor growth”.
